Laboratory results from patent US20260176262A1, “KRAS INHIBITORS, PREPARATION METHOD THEREFOR, AND PHARMACEUTICAL USE THEREOF” (ABBISKO THERAPEUTICS CO., LTD., priority 2021, published 2026).
Where two headings read alike, the source gives them in different places.

How the values were obtained:
AGS cell = test: Anti-proliferative 2D CTG assay, AGS cells; type: cell-based; conditions: Homo sapiens, 72 h, AGS cells, incubated 3 days, CTG, read-out: AGS cell IC50
Protocol: When the cell confluence was about 80%, the cells were isolated with 0.25% trypsin. Isolated cells were resuspended in 5 mL fresh cell culture medium and centrifuged for cell collection. Meanwhile, the number of cells was also calculated. The cells were then suspended in culture medium of medium concentration. The cells were placed into a 96-well plate with 1000 cells/well for AGS and 1000 cells/well for GP2D. The 96-well plate was placed in an incubator at 37° C. and incubated overnight.
1.2 Day 1 Compound Treatment From the 10 mM stock solution, with a ratio of 1:5, 10-point serial dilutions were performed. The 10× medium containing the compound was transferred into corresponding wells of the 96 wells. The final maximum compound concentration was […] and the final DMSO concentration was 0.1%. The 96-well plate was placed in a 37° C. incubator, the AGS cells were incubated for 3 days, and the GP2D cells were incubated for 4 days.
50 μL/well of detection reagent (CTG) was added to the AGS cells, and the signal was read in an Envision machine.
The percent inhibition (%) at each compound concentration was calculated from the signal in the HPE and ZPE control wells and the fluorescence signal in the individual compound wells included in each assay plate. […] The compound concentration required for inhibitory concentration at 50% (IC50) was determined using a four-parameter logarithmic dose-response equation by testing the concentration of the compound and the inhibition percentage value. The endpoint value (IC50) of the reference compound was assessed in each experiment as a quality control measure. If the endpoint value is within three times the expected value, the experiment may be considered acceptable.

KRAS^G12D/cRAF = KRAS^G12D/cRAF (Homo sapiens, UniProt P01116, G12D); test: KRAS G12D/cRAF binding test (Alphalisa); conditions: His-tagged KRAS G12D + GMPPNP, GST-tagged cRAF
Sequence of KRAS^G12D/cRAF (P01116 1-188 isoform P01116-2 G12D): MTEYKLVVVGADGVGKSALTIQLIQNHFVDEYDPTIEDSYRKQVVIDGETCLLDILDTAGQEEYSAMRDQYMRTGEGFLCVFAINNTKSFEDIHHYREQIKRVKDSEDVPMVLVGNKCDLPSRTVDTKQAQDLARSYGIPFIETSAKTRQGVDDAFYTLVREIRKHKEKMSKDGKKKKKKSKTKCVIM
Protocol: The compound was dissolved in 100% DMSO at a starting concentration of 5 mM and diluted in DMSO with a 3-fold serial dilution method for a total of 8 concentration points. 1 μL of the compound or DMSO at each concentration point was added into 99 μL of the experimental buffer to obtain 10× stock solution.
• 1) 4 μL of the working mixture solution of His-tagged KRAS^G12D and GMPPNP was added to the 384-well plate. • 2) The 10× compound stock solution or 1% DMSO was added to the 384-well plate. • 3) The plate was centrifuged at 1000 rpm for 1 minute. • 4) 4 μL of GST-tagged cRAF solution was added to the 384-well plate. • 5) The plate was centrifuged at 1000 rpm for 1 minute. • 6) The plate was incubated at room temperature for 15 minutes. • 7) 10 μL of detection working solution was added to the 384-well plate. • 8) The plate was centrifuged at 1000 rpm for 1 minute. • 9) The plate was incubated at room temperature for 60 minutes. • 10) The 384-well plate was placed into Envision and assay data was obtained.
The ratio for each compound concentration was calculated from the signal of the DMSO control group contained in each assay plate and the Alphalisa signal in each compound well. The compound concentration required for inhibitory concentration at 50% (IC50) was determined using a four-parameter logarithmic dose-response equation by testing the concentration of the compound and the value of the ratio. The endpoint value (IC50) of the reference compound was assessed in each experiment as a quality control measure. If the endpoint value is within three times the expected value, the experiment may be considered acceptable.

SMILES | IC50 (AGS cell; class symbols) | IC50 (KRAS^G12D/cRAF; class symbols) | IC50 (AGS cell; numeric values) | IC50 (KRAS^G12D/cRAF; numeric values)
[2H]C([2H])([2H])OCC12CCC(C)(CN(c3nc(OC[C@@]45CCCN4C[C@H](F)C5)nc4c(F)c(-c5cc(O)cc6ccc(F)c(C#C)c56)ncc34)C1)N2 (stereo partly drawn) [Example 18, 5-ethynyl-6-fluoro-4-(8-fluoro-2-(((2R,7aS)-2-fluorotetrahydro-1H-pyrrolizin-7a(5H)-yl)methoxy)-4-(1-((methoxy-d3)methyl)-5-methyl-3,8-diazabicyclo [3.2.1]octan-3-yl)pyrido[4,3-d]pyrimidin-7-yl)naphthalen-2-ol] | 0.05 to 0.5 µM | 0.05 to 0.5 µM |  | 
C#Cc1c(F)ccc2cc(O)cc(-c3ncc4c(N5CC6CCC(CC)(C5)N6)nc(OC[C@@]56CCCN5C[C@H](F)C6)nc4c3F)c12 (stereo partly drawn) [Example 19, 4-(4-(1-ethyl-3,8-diazabicyclo[3.2.1]octan-3-yl)-8-fluoro-2-(((2R,7aS)-2-fluorotetrahydro-1H -pyrrolizin-7a(5H)-yl)methoxy)pyrido[4,3-d]pyrimidin-7-yl)-5-ethynyl-6-fluoronaphthalen-2-ol] | < 0.05 µM | 0.05 to 0.5 µM |  | 
C#Cc1c(F)ccc2cc(O)cc(-c3ncc4c(N5CC6(C)CCC(C)(C5)N6)nc(OC[C@@]56CCCN5C[C@H](F)C6)nc4c3F)c12 [Example 20, 4-(4-(1,5-dimethyl-3,8-diazabicyclo[3.2.1]octan-3-yl)-8-fluoro-2-(((2R,7aS)-2-fluorotetrahydro-1H-pyrrolizin-7a(5H)-yl)methoxy)pyrido[4,3-d]pyrimidin-7-yl)-5-ethynyl-6-fluoronaphthalen-2-ol] | < 0.05 µM | 0.05 to 0.5 µM |  | 
C#Cc1c(F)ccc2cc(O)cc(-c3ncc4c(N5CC6CCC(CC(F)F)(C5)N6)nc(OC[C@@]56CCCN5C[C@H](F)C6)nc4c3F)c12 (stereo partly drawn) [Example 21, 4-(4-(1-(2,2-difluoroethyl)-3,8-diazabicyclo[3.2.1]octan-3-yl)-8-fluoro-2-(((2R,7aS)-2-fluorotetrahydro-1H-pyrrolizin-7a(5H)-yl)methoxy)pyrido[4,3-d]pyrimidin-7-yl)-5-ethynyl-6-fluoronaphthalen-2-ol] | < 0.05 µM | 0.05 to 0.5 µM |  | 
C#Cc1c(F)ccc2cc(O)cc(-c3ncc4c(N5CC6CCC(C(=O)O)(C5)N6)nc(OC[C@@]56CCCN5C[C@H](F)C6)nc4c3F)c12 (stereo partly drawn) [Example 22, 3-(7-(8-ethynyl-7-fluoro-3-hydroxynaphthalen-1-yl)-8-fluoro-2-(((2R,7aS)-2-fluorotetrahydro-1H-pyrrolizin-7a(5H)-yl)methoxy)pyrido[4,3-d]pyrimidin-4-yl)-3,8-diazabicyclo[3.2.1] octan-1-carboxylic acid] | > 0.5 µM | 0.05 to 0.5 µM |  | 
C#Cc1c(F)ccc2cc(O)cc(-c3ncc4c(N5CC6CCC(C(=O)OC)(C5)N6)nc(OC[C@@]56CCCN5C[C@H](F)C6)nc4c3F)c12 (stereo partly drawn) [Example 23, methyl 3-(7-(8-ethynyl-7-fluoro-3-hydroxynaphthalen-1-yl)-8-fluoro-2-(((2R,7aS)-2-fluorotetrahydro-1H-pyrrolizin-7a(5H)-yl)methoxy)pyrido[4,3-d]pyrimidin-4-yl)-3,8-diazabicyclo[3.2.1] octan-1-carboxylate] | 0.05 to 0.5 µM | 0.05 to 0.5 µM |  | 
C#Cc1c(F)ccc2cc(O)cc(-c3ncc4c(N5CC6CCC(CN(C)C)(C5)N6)nc(OC[C@@]56CCCN5C[C@H](F)C6)nc4c3F)c12 (stereo partly drawn) [Example 24, 4-(4-(1-((dimethylamino)methyl)-3,8-diazabicyclo[3.2.1]octan-3-yl)-8-fluoro-2-(((2R,7aS)-2-fluorotetrahydro-1H-pyrrolizin-7a(5H)-yl)methoxy)pyrido[4,3-d]pyrimidin-7-yl)-5-ethynyl-6-fluoronaphthalen-2-ol] | < 0.05 µM | 0.05 to 0.5 µM |  | 
C#Cc1c(F)ccc2cc(O)cc(-c3ncc4c(N5CC6CCC(CN(C)C(C)=O)(C5)N6)nc(OC[C@@]56CCCN5C[C@H](F)C6)nc4c3F)c12 (stereo partly drawn) [Example 25, N-((3-(7-(8-ethynyl-7-fluoro-3-hydroxynaphthalen-1-yl)-8-fluoro-2-(((2R,7aS)-2-fluorotetrahydro-1H-pyrrolizin-7a(5H)-yl)methoxy)pyrido[4,3-d]pyrimidin-4-yl)-3,8-diazabicyclo[3.2.1]octan-1-yl)methyl)-N-methylacetamide] | > 0.5 µM | 0.05 to 0.5 µM |  | 
C#Cc1c(F)ccc2cc(O)cc(-c3ncc4c(N5CC6CCC(/C=C\F)(C5)N6)nc(OC[C@@]56CCCN5C[C@H](F)C6)nc4c3F)c12 (stereo partly drawn) [Example 27, 5-ethynyl-6-fluoro-4-(8-fluoro-2-(((2R,7aS)-2-fluorotetrahydro-1H-pyrrolizin-7a(5H)-yl)methoxy)-4-(1-((Z)-2-fluorovinyl)-3,8-diazabicyclo[3.2.1]octan-3-yl)pyrido[4,3-d]pyrimidin-7-yl) naphthalen-2-ol] |  |  | 0.011 µM | 0.054 µM
C#Cc1c(F)ccc2cc(O)cc(-c3ncc4c(N5CC6CCC(/C=C/F)(C5)N6)nc(OC[C@@]56CCCN5C[C@H](F)C6)nc4c3F)c12 (stereo partly drawn) [Example 28, 5-ethynyl-6-fluoro-4-(8-fluoro-2-(((2R,7aS)-2-fluorotetrahydro-1H-pyrrolizin-7a(5H)-yl)methoxy)-4-(1-((E)-2-fluorovinyl)-3,8-diazabicyclo[3.2.1]octan-3-yl)pyrido[4,3-d]pyrimidin-7-yl) naphthalen-2-ol] | < 0.05 µM | 0.05 to 0.5 µM |  | 
C#Cc1c(F)ccc2cc(O)cc(-c3ncc4c(N5CC6CCC(/C=C\C)(C5)N6)nc(OC[C@@]56CCCN5C[C@H](F)C6)nc4c3F)c12 (stereo partly drawn) [Example 29, 5-ethynyl-6-fluoro-4-(8-fluoro-2-(((2R,7aS)-2-fluorotetrahydro-1H-pyrrolizin-7a(5H)-yl)methoxy)-4-(1-((Z)-prop-1-en-1-yl)-3,8-diazabicyclo[3.2.1]octan-3-yl)pyrido[4,3-d]pyrimidin-7-yl)naphthalen-2-ol] | < 0.05 µM | 0.05 to 0.5 µM |  | 
C#Cc1c(F)ccc2cc(O)cc(-c3ncc4c(N5CC6CCC(CC(=O)OC)(C5)N6)nc(OC[C@@]56CCCN5C[C@H](F)C6)nc4c3F)c12 (stereo partly drawn) [Example 34, Methyl 2-(3-(7-(8-ethynyl-7-fluoro-3-hydroxynaphthalen-1-yl)-8-fluoro-2-(((2R,7aS)-2-fluorohexahydro-1H-pyrrolizin-7a-yl)methoxy)pyrido[4,3-d]pyrimidin-4-yl)-3,8-diazabicyclo[3.2.1]octan-1-yl)acetate] | 0.05 to 0.5 µM | < 0.05 µM |  | 
[2H]C([2H])([2H])OCC12CCC(CN(c3nc(OC[C@@]45CCCN4C[C@H](F)C5)nc4c(F)c(-c5cc(O)cc6ccc(F)c(C#C)c56)nc(OC)c34)C1)N2 (stereo partly drawn) [Example 36, 5-ethynyl-6-fluoro-4-(8-fluoro-2-(((2R,7aS)-2-fluorotetrahydro-1H-pyrrolizin-7a(5H)-yl)methoxy)-5-methoxy-4-(1-((methoxy-d3)methyl)-3,8-diazabicyclo[3.2.1]octan-3-yl)pyrido[4,3-d]pyrimidin-7-yl)naphthalen-2-ol] | 0.05 to 0.5 µM | 0.05 to 0.5 µM |  | 
[2H]C([2H])([2H])OC[C@]12CC[C@H](CN(c3nc(OC[C@@]45CCCN4C[C@H](F)C5)nc4c(F)c(-c5cc(O)cc6ccc(F)c(C#C)c56)nc(OCC)c34)C1)N2 [Example 37, 4-(5-ethoxy-8-fluoro-2-(((2R, 7aS)-2-fluorotetrahydro-1H-pyrrolizin-7a(5H)-yl)methoxy)-4-((1S,5R)-1-((methoxy-d3)methyl)-3,8-diazabicyclo [3.2.1]octan-3-yl)pyrido [4,3-d]pyrimidin-7-yl)-5-ethynyl-6-fluoronaphthalen-2-ol] | < 0.05 µM | 0.05 to 0.5 µM |  | 
[2H]C([2H])([2H])OCC12CCC(CN(c3nc(OC[C@@]45CCCN4C[C@H](F)C5)nc4c(F)c(-c5cc(O)cc6ccc(F)c(C#C)c56)nc(C)c34)C1)N2 (stereo partly drawn) [Example 39, 5-ethynyl-6-fluoro-4-(8-fluoro-2-(((2R,7aS)-2-fluorotetrahydro-1H-pyrrolizin-7a(5H)-yl)methoxy)-4-(1-((methoxy-d3)methyl)-3,8-diazabicyclo[3.2.1]octan-3-yl)-5-methylpyrido[4,3-d]pyrimidin-7-yl)naphthalen-2-ol] | < 0.05 µM | 0.05 to 0.5 µM |  | 
